According to patent EP2809669B1, “FUSED PYRROLEDICARBOXAMIDES AND THEIR USE AS PHARMACEUTICALS” (SANOFI, priority 2012, dated 2013):
Where two headings read alike, the source gives them in different places.

What was measured:
[1] = system: atrium of the anesthetized pig; experiment: Investigation of the refractory period and the left-atrial vulnerability in the anesthetized pig; assay type: in vivo; conditions: Sus scrofa, iv; for change in vivo at 0.3 mg/kg / inhibition in vivo at 0.3 mg/kg: 0.3 mg/kg i.v.
Method: Investigation of the refractory period and the left-atrial vulnerability in the pig
The compounds were tested for prolongation of the refractory period and antiarrhythmic activity on the atrium of the anesthetized pig as described in Knobloch K. et al., Naunyn-Schmiedeberg's Arch. Pharmacol. 2002, 366, 482-487. Here the anti-arrhythmic action relates to the inhibition of the occurrence of episodes of atrial arrhythmias which are induced by a prematurely placed extra-stimulus (S2) in the left atrium (= left-atrial vulnerability). The prolongation of the refractory period (refractoriness) is expressed as the increase in percent of the value of the refractory period 15 min after the end of administration of the test compound vs. the basal value before administration. Mean values of the prolongation of the refractory period are shown from three rates (150/min, 200/min and 250/min). The values for the inhibition of left atrial vulnerability (inhibition of episodes of arrhythmias) in percent refer to three measurements (three time points) before administration of the test compound vs. at least three measurements during the first hour after administration.
In Table 16, the action of compounds of the formula I from the examples above on the refractory period of the left atrium and their antiarrhythmic activity in the anesthetized pig after intravenous (i.v.) administration of the described dose is shown.

hERG channel = biological target: T1, hERG channel (Homo sapiens, UniProt Q12809); experiment: Determination of the effect on the hERG channel in CHO cells (whole-cell patch clamp); assay type: cell-based; conditions: CHO cells stably expressing hERG, room temperature, read-out: IC50 value [µM] for hERG inhibition
T1 construct: expressed in transfected cells
T1 sequence (Q12809 whole entry): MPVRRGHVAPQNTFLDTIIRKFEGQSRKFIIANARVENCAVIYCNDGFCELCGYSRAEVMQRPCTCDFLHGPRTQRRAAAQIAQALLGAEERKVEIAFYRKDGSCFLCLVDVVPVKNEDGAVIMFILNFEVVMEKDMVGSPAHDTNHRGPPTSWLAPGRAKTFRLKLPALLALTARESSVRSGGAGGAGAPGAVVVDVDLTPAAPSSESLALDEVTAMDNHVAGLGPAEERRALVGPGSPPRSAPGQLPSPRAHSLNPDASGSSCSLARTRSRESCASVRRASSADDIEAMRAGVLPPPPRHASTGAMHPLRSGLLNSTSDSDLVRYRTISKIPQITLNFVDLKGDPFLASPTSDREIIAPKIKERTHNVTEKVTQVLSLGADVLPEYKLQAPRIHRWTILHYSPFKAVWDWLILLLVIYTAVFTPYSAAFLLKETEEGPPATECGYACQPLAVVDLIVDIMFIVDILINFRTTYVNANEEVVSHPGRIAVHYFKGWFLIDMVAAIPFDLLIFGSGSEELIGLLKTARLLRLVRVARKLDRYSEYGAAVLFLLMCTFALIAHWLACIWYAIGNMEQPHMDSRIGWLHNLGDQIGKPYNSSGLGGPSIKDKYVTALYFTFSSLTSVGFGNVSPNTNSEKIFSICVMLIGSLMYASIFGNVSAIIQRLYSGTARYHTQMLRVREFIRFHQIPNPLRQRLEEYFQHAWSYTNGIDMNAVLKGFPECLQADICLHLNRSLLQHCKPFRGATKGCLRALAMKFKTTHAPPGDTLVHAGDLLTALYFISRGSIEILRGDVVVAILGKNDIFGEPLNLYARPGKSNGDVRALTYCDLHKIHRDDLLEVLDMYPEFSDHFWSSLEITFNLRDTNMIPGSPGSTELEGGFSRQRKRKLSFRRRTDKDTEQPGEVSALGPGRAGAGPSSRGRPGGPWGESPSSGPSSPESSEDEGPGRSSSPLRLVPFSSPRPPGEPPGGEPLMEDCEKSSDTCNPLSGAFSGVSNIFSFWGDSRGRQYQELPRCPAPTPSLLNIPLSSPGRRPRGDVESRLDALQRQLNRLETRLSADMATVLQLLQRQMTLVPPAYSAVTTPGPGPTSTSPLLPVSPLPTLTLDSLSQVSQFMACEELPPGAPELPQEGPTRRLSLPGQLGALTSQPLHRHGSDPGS
Method: Determination of the effect on the hERG channel in CHO cells
An inhibition of the hERG (human Ether-a-go-go-Related Gene) potassium channel is unwanted because it can lead to dangerous arrhythmias. The effect of compounds of the formula I on the cloned human cardiac hERG channel was evaluated in an in vitro model using a whole-cell patch-clamping technique. CHO (Chinese hamster ovary) cells stably expressing hERG, the potassium channel underlying IKr currents in human hearts, were grown in HAM's F-12 media supplemented with 10 % fetal bovine serum, 1 x penicillin/streptomycin and 500 µg/ml G418 (Invitrogen, Carlsbad, CA, USA) in an atmosphere of 95 % air and 5 % carbon dioxide. Cells used for patch-clamping were seeded on glass or plastic coverslips 12 to 36 hours before use. hERG channel currents were recorded at room temperature using the whole-cell configuration of the patch clamp technique with an Axopatch 200B amplifier (Axon Instruments, Foster City, CA, USA). Briefly, electrodes (3 to 6 MΩ resistance) were fashioned from TW150F glass capillary tubes (World Precision Instruments, Sarasota, FL, USA) and filled with pipette solution (containing 120 mM potassium aspartate, 20 mM potassium chloride, 4 mM adenosine triphosphate disodium salt, 5 mM HEPES, 1 mM magnesium chloride; pH adjusted to 7.2 with potassium hydroxide). hERG currents were initiated by a positive voltage pulse (20 mV) followed by a negative pulse (-40 mV) and were recorded for off-line analyses. Once hERG current from a cell perfused with external solution (containing 130 mM sodium chloride, 5 mM potassium chloride, 2.8 mM sodium acetate, 1 mM magnesium chloride, 10 mM HEPES, 10 mM glucose, 1 mM calcium chloride; pH adjusted to 7.4 with sodium hydroxide) without the test compound, i.e. control solution, was stabilized, the cell was perfused with external solution containing the test compound at specific concentrations. For each concentration from each cell, peak amplitude of the steady-state hERG tail current at -40 mV was measured in picoAmpere (pA). The peak amplitude in pA for each concentration (up to a maximum concentration of 10 µM) was compared with that for the control solution from the same cell and expressed as percent value of the control. From the percent values at multiple concentrations, IC50 values for inhibition of hERG can be determined.

upper airway = experiment: Effect on upper airway collapsibility in the anesthetized pig (negative pressure challenge); assay type: in vivo; conditions: negative pressure -150 mbar
Excerpt: Effect on upper airway collapsibility in the pig Pharmacological efficacy against obstructive apneas was investigated in chloralose-urethane anesthetized pigs (weight range 20 to 35 kg), a large-animal model for obstructive apneas. Negative pressure generated by a negative pressure device was applied with a cannula to the upper part of the trachea for at least three breaths so that the upper airway was exposed to the negative pressure generated by the device. This caused an upper airway collapse as in an obstructive apnea in control animals treated with vehicle only, and in animals of the treatment group before the test compound was administered (baseline situation). Different levels of negative pressure were used to cause a collapse of the upper airway (-50 mbar, -100 mbar and -150 mbar). These negative pressure challenges were repeated several times before vehicle or test compound was given, and at regular intervals after administration of vehicle or test compound. Whether the upper airway was collapsed or open, was judged by airflow measurement and by the tracheal pressure in the cannula inserted into the upper trachea. In case the upper airway was collapsed by the negative pressure, airflow to the negative pressure device was close to zero. As a second parameter tracheal pressure approached the negative pressure generated by the device during upper airway collapse. Test compounds were administered by intravenous bolus injection. After administration of an effective test compound the upper airway was open during the negative pressure challenges, i.e. not collapsed, as indicated by airflow to the negative pressure device and the fact that tracheal pressure now approached atmospheric pressure in the inspiratory phase where upper airway muscles are activated. In vehicle-treated controls upper airway collapse occurred at every negative pressure challenge at -50 mbar, -100 mbar and -150 mbar. In Table 17, the time after administration of compounds of the formula I from the examples above is shown during which no upper airway collapse occurred (time of inhibition of collapsibility) at a negative pressure of -150 mbar. […]

[2] = 0.25 h, bolus injection, 15 min after end of administration vs. basal value, mean of three rates (150/min, 200/min, 250/min), read-out: % Prolongation of left atrial refractory period
[3] = 1 h, bolus injection, first hour after administration vs. before
[4] = infusion over 1 h, first hour after administration vs. before
[5] = 0.25 h, infusion over 1 h, 15 min after end of administration vs. basal value, mean of three rates (150/min, 200/min, 250/min), read-out: % Prolongation of left atrial refractory period
[6] = 100 µg/kg intravenous bolus injection

CC[C@@H](NC(=O)c1cc(C(=O)N2CCC[C@@H]2C)n2c1COCC2)c1cnc(OC)c(Cl)c1 [16b, 6-((S)-2-Methyl-pyrrolidine-1-carbonyl)-3,4-dihydro-1H-pyrrolo[2,1-c][1,4]oxazine-8-carboxylic acid [(R)-1-(5-chloro-6-methoxy-pyridin-3-yl)-propyl]-amide]
change in vivo at 0.3 mg/kg [1, 2]: 21%
inhibition in vivo at 0.3 mg/kg [1, 3]: 91%
IC50 (hERG channel): > 10 µM

CC[C@@H](NC(=O)c1cc(C(=O)N2CCC[C@@H]2C)n2c1COCC2)c1ccc(C(F)(F)F)c(Cl)c1 [16c, 6-((S)-2-Methyl-pyrrolidine-1-carbonyl)-3,4-dihydro-1H-pyrrolo[2,1-c][1,4]oxazine-8-carboxylic acid [(R)-1-(3-chloro-4-trifluoromethyl-phenyl)-propyl]-amide]
change in vivo at 0.03 mg/kg ([1]; 0.25 h, 0.03 mg/kg i.v., bolus injection, 15 min after end of administration vs. basal value, mean of three rates (150/min, 200/min, 250/min), read-out: % Prolongation of left atrial refractory period): 12%
inhibition in vivo at 0.03 mg/kg ([1]; 1 h, 0.03 mg/kg i.v., bolus injection, first hour after administration vs. before): 65%
IC50 (hERG channel): > 10 µM

CC[C@@H](NC(=O)c1cc(C(=O)N2CCC[C@@H]2C)n2c1COCC2)c1ccc(C(F)(F)F)cc1 [16f, 6-((S)-2-Methyl-pyrrolidine-1-carbonyl)-3,4-dihydro-1H-pyrrolo[2,1-c][1,4]oxazine-8-carboxylic acid [(R)-1-(4-trifluoromethyl-phenyl)-propyl]-amide]
change in vivo at 1 mg/kg ([1]; 0.25 h, 1.0 mg/kg i.v., bolus injection, 15 min after end of administration vs. basal value, mean of three rates (150/min, 200/min, 250/min), read-out: % Prolongation of left atrial refractory period): 19%
inhibition in vivo at 1 mg/kg ([1]; 1 h, 1.0 mg/kg i.v., bolus injection, first hour after administration vs. before): 73%

CC[C@@H](NC(=O)c1cc(C(=O)N[C@H](CC)c2ccccc2)n2c1COCC2)c1ccccc1 [16i, 3,4-Dihydro-1H-pyrrolo[2,1-c][1,4]oxazine-6,8-dicarboxylic acid bis-[((R)-1-phenylpropyl)-amide]]
IC50 (hERG channel): > 10 µM
Time of inhibition of collapsibility (at -150 mbar) (upper airway; 10 µg/kg intravenous bolus injection): for 90 min

CC[C@@H](NC(=O)c1cc(C(=O)N2CCC[C@@H]2C)n2c1COCC2)c1ccc(C(F)(F)F)nc1 [16e, 6-((S)-2-methyl-pyrrolidine-1-carbonyl)-3,4-dihydro-1H-pyrrolo[2,1-c][1,4]oxazine-8-carboxylic acid [(R)-1-(6-trifluoromethyl-pyridin-3-yl)-propyl]-amide]
inhibition in vivo at 0.3 mg/kg [1, 4]: 84%
change in vivo at 0.3 mg/kg [1, 5]: 38%
IC50 (hERG channel): > 10 µM

CC[C@@H](NC(=O)c1cc(C(=O)N2CCC[C@@H]2C)n2c1COCC2)c1ccc(Cl)c(Cl)c1 [16ci, 6-((S)-2-Methyl-pyrrolidine-1-carbonyl)-3,4-dihydro-1H-pyrrolo[2,1-c][1,4]oxazine-8-carboxylic acid [(R)-1-(3,4-dichloro-phenyl)-propyl]-amide]
IC50 (hERG channel): ~10 µM

CC[C@@H](NC(=O)c1cc(C(=O)N2CCC[C@@H]2C)n2c1COCC2)c1ccc(C#N)c(Cl)c1 [16d, 6-((S)-2-Methyl-pyrrolidine-1-carbonyl)-3,4-dihydro-1H-pyrrolo[2,1-c][1,4]oxazine-8-carboxylic acid [(R)-1-(3-chloro-4-cyano-phenyl)-propyl]-amide]
change in vivo at 0.3 mg/kg [1, 2]: 24%
inhibition in vivo at 0.3 mg/kg [1, 3]: 100%
IC50 (hERG channel): > 10 µM

CC[C@@H](NC(=O)c1cc(C(=O)N[C@H](CC)c2ccc(OC)nc2)n2c1COCC2)c1ccccc1 [16j, 3,4-Dihydro-1H-pyrrolo[2,1-c][1,4]oxazine-6,8-dicarboxylic acid 6-{[(R)-1-(6-methoxy-pyridin-3-yl)-propyl]-amide}8-[((R)-1-phenyl-propyl)-amide]]
IC50 (hERG channel): > 10 µM
Time of inhibition of collapsibility (at -150 mbar) (upper airway; [6]): for 120 min

CC[C@@H](NC(=O)c1cc(C(=O)N2CCC[C@@H]2C(F)(F)F)n2c1COCC2)c1ccc(C(F)(F)F)nc1 [16o, 6-((R)-2-Trifluoromethyl-pyrrolidine-1-carbonyl)-3,4-dihydro-1H-pyrrolo[2,1-c][1,4]oxazine-8-carboxylic acid [(R)-1-(6-trifluoromethyl-pyridin-3-yl)-propyl]-amide]
change in vivo at 0.3 mg/kg [1, 2]: 45%
inhibition in vivo at 0.3 mg/kg [1, 3]: 71%

CC[C@@H](NC(=O)c1cc(C(=O)N[C@H](C)c2ccc(F)cc2)n2c1COCC2)c1ccc(C(F)(F)F)nc1 [16g, 3,4-Dihydro-1H-pyrrolo[2,1-c][1,4]oxazine-6,8-dicarboxylic acid 6-{[(R)-1-(4-fluorophenyl)-ethyl]-amide}8-{[(R)-1-(6-trifluoromethyl-pyridin-3-yl)-propyl]-amide}]
IC50 (hERG channel): > 10 µM

CC[C@@H](NC(=O)c1cc(C(=O)N[C@H](C)c2ccc(F)cc2)n2c1COCC2)c1ccc(C(F)(F)F)cc1 [16eb, 3,4-Dihydro-1H-pyrrolo[2,1-c][1,4]oxazine-6,8-dicarboxylic acid 6-{[(R)-1-(4-fluoro-phenyl)-ethyl]-amide} 8-{[(R)-1-(4-trifluoromethyl-phenyl)-propyl]-amide}]
IC50 (hERG channel): > 1 µM

CC[C@@H](NC(=O)c1cc(C(=O)N2CCC[C@@H]2C)n2c1COCC2)c1ccccc1 [16a, 6-((S)-2-Methyl-pyrrolidine-1-carbonyl)-3,4-dihydro-1H-pyrrolo[2,1-c][1,4]oxazine-8-carboxylic acid ((R)-1-phenyl-propyl)-amide]
inhibition in vivo at 0.3 mg/kg [1, 4]: 91%
change in vivo at 0.3 mg/kg [1, 5]: 40%
IC50 (hERG channel): > 10 µM

CCOC(=O)CNC(=O)c1cc(C(=O)N[C@H](CC)c2ccccc2)c2n1CCOC2 [16k, {[8-((R)-1-Phenyl-propylcarbamoyl)-3,4-dihydro-1H-pyrrolo[2,1-c][1,4]oxazine-6-carbonyl]-amino}-acetic acid ethyl ester]
IC50 (hERG channel): > 10 µM
Time of inhibition of collapsibility (at -150 mbar) (upper airway; [6]): for >240 min

CCOC(=O)[C@H](C)N(C)C(=O)c1cc(C(=O)N[C@H](CC)c2ccccc2)c2n1CCOC2 [16l, (S)-2-{Methyl-[8-((R)-1-phenyl-propylcarbamoyl)-3,4-dihydro-1H-pyrrolo[2,1-c][1,4]oxazine-6-carbonyl]-amino}-propionic acid ethyl ester]
IC50 (hERG channel): > 10 µM
Time of inhibition of collapsibility (at -150 mbar) (upper airway; [6]): for >120 min
